Experimental findings from US10562912B2 (C&C Research Laboratories, priority 2013, dated 2020) are described below.

SMILES strings stand for the structures. Bounds are passed on as bounds.

Holding throughout (type): cell-based
One test addresses T1, STAT3 (Homo sapiens, UniProt P40763).
T1 construct: plasmid pSTAT3-TA-luc), which contains a stably operating STAT3 promoter; endogenous in cells
As to the kind of experiment: STAT3 reporter gene assay (luciferase), LNCaP stable cell line (pSTAT3-TA-luc), IL-6 stimulation. Summed up:
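LNCaP cells stably carrying pSTAT3-TA-luc, in RPMI1640 with 3% DCC-FBS, were treated with compound and then stimulated with 10 ng/mL IL-6 for 24–48 h at 37 °C. Luciferase activity was measured in lysates. A parallel plate measured viability by CellTiter-Glo, with stimulated 0.1% DMSO wells as the positive control.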
A general note: Reporter assays use an easily measured gene product as a stand-in for the process of interest.

A further test concerns DU-145. The experiment in a line: Cell growth inhibition assay, prostate cancer cell line DU-145. To be noted: Homo sapiens, DU-145 prostate cancer cell line. Summed up: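 Viability by CellTiter-Glo luminescence after 72–96 h of compound dosing at 37° C. under 5% CO2; DU-145 and HCT116 seeded at 3,000 cells/well, SW626 at 5,000 cells/well.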
A further test deals with LNCaP. The experiment in a line: Cell growth inhibition assay, prostate cancer cell line LNCaP (medium with 10 ng/mL IL-6). To be noted: Homo sapiens, medium supplemented with 10 ng/mL of IL-6, 10,000 cells/well.

T1 sequence (P40763 whole entry): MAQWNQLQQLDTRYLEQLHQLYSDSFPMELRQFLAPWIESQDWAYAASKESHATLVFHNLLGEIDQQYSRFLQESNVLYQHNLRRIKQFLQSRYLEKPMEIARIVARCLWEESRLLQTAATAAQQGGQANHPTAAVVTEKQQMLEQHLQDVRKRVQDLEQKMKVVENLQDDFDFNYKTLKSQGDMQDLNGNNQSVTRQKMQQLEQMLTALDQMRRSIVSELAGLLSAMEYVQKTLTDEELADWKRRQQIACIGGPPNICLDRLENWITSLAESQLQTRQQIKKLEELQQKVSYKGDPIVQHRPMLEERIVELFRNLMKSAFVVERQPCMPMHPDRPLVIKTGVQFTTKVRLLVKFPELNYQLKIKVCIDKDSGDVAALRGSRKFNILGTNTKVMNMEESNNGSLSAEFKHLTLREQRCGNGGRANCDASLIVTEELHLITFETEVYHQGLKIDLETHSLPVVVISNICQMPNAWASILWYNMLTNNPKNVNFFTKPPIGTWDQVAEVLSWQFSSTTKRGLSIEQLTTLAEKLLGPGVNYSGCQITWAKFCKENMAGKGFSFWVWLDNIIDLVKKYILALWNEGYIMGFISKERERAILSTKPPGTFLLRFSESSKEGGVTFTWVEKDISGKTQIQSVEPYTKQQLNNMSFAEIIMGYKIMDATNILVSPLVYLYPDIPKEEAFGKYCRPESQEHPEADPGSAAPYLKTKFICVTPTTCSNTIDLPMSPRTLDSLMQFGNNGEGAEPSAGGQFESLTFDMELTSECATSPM

One may read the IC50 as the concentration at which inhibition is half-maximal. Read a low IC50 as higher potency. On to `CC(C)(c1ccc(S(C)(=O)=O)cc1)c1cc(Cl)cc(NC(=O)c2cc3cc(NS(C)(=O)=O)ccc3s2)c1` [Example 161, N-(3-chloro-5-(2-(4-(methylsulfonyl)phenyl)propan-2-yl)phenyl)-5-(methylsulfonamido)benzo[b]thiophene-2-carboxamide], for which the values for the half-maximal inhibitory concentration (IC50) against STAT3, in the test on DU-145 and with LNCaP were greater than 10 µM, 0.72 µM and greater than 1.1 µM, respectively.
On the same counts, the results for `CC(C)(c1cc(Cl)cc(NC(=O)c2cc3cc(NS(C)(=O)=O)c(Cl)cc3s2)c1)N1CCCCC1` [Example 165, 6-chloro-N-(3-chloro-5-(2-(piperidin-1-yl)propan-2-yl)phenyl)-5-(methylsulfonamido)benzo[b]thiophene-2-carboxamide] are 0.13 µM, 0.07 µM and 0.11 µM.
For `CC(C)(c1cc(Cl)cc(NC(=O)c2cc3cc(NS(C)(=O)=O)ccc3s2)c1)c1cccs1` [Example 170, N-(3-chloro-5-(2-(thiophen-2-yl)propan-2-yl)phenyl)-5-(methylsulfonamido)benzo[b]thiophene-2-carboxamide], in that order: 0.068 µM, 0.005 µM and 0.059 µM.
For `CC(C)(c1ccsc1)c1cc(Cl)cc(NC(=O)c2cc3cc(NS(C)(=O)=O)ccc3s2)c1` [Example 171, N-(3-chloro-5-(2-(thiophen-3-yl)propan-2-yl)phenyl)-5-(methylsulfonamido)benzo[b]thiophene-2-carboxamide], in that order: 0.074 µM, 0.038 µM and 0.071 µM.
Regarding `CC(C)(c1ccc(Cl)cc1)c1cc(Cl)cc(NC(=O)c2cc3cc(NS(C)(=O)=O)c(Cl)cc3s2)c1` [Example 172, 6-chloro-N-(3-chloro-5-(2-(4-chlorophenyl)propan-2-yl)phenyl)-5-(methylsulfonamido)benzo[b]thiophene-2-carboxamide], the figures for the IC50 against STAT3, in the test on DU-145 and with LNCaP were 0.016 µM, 0.005 µM and 0.009 µM, respectively.
For `CC(C)(c1ccc(Cl)cc1)c1cc(Cl)cc(NC(=O)c2cc3cc(NS(C)(=O)=O)c(Br)cc3s2)c1` [Example 173, 6-bromo-N-(3-chloro-5-(2-(4-chlorophenyl)propan-2-yl)phenyl)-5-(methylsulfonamido)benzo[b]thiophene-2-carboxamide], in that order: 0.011 µM, 0.009 µM and 0.11 µM.
Turning to `CC(C)(c1cc(Cl)cc(NC(=O)c2cc3cc(NS(C)(=O)=O)ccc3s2)c1)c1ccc(Cl)s1` [Example 174, N-(3-chloro-5-(2-(5-chlorothiophen-2-yl)propan-2-yl)phenyl)-5-(methylsulfonamido)benzo[b]thiophene-2-carboxamide], the IC50 on STAT3 came to 0.1 µM; in the test on DU-145, 0.033 µM; with LNCaP, 0.091 µM.
Consider `CC(C)(c1cc(Cl)cc(NC(=O)c2cc3cc(NS(C)(=O)=O)c(Cl)cc3s2)c1)c1ccc(Cl)s1` [Example 175, 6-chloro-N-(3-chloro-5-(2-(5-chlorothiophen-2-yl)propan-2-yl)phenyl)-5-(methylsulfonamido)benzo[b]thiophene-2-carboxamide], for which the IC50 at STAT3 is 0.007 µM; in the test with DU-145, 0.005 µM; in the test with LNCaP, 0.016 µM.
For `COc1sccc1C(C)(C)c1cc(Cl)cc(NC(=O)c2cc3cc(NS(C)(=O)=O)ccc3s2)c1` [Example 176, N-(3-chloro-5-(2-(2-methoxythiophen-3-yl)propan-2-yl)phenyl)-5-(methylsulfonamido)benzo[b]thiophene-2-arboxamide], in that order: 0.036 µM, 0.038 µM and 0.071 µM.
For `COc1ccc(C(C)(C)c2cc(Cl)cc(NC(=O)c3cc4cc(NS(C)(=O)=O)ccc4s3)c2)s1` [Example 177, N-(3-chloro-5-(2-(5-methoxythiophen-2-yl)propan-2-yl)phenyl)-5-(methylsulfonamido)benzo[b]thiophene-2-carboxamide], in that order: 0.047 µM, 0.058 µM and 0.089 µM.
Regarding `Cc1ccc(C(C)(C)c2cc(Cl)cc(NC(=O)c3cc4cc(NS(C)(=O)=O)ccc4s3)c2)s1` [Example 178, N-(3-chloro-5-(2-(5-methylthiophen-2-yl)propan-2-yl)phenyl)-5-(methylsulfonamido)benzo[b]thiophene-2-carboxamide], the IC50 turned out to be 0.025 µM on STAT3, 0.024 µM in the test on DU-145 and 0.042 µM in the test on LNCaP.
On the same counts, the results for `Cc1ccc(C(C)(C)c2cc(Cl)cc(NC(=O)c3cc4cc(NS(C)(=O)=O)c(Cl)cc4s3)c2)s1` [Example 179, 6-chloro-N-(3-chloro-5-(2-(5-methylthiophen-2-yl)propan-2-yl)phenyl)-5-(methylsulfonamido)benzo[b]thiophene-2-carboxamide] are 0.004 µM, 0.004 µM and 0.007 µM.
For `CC(C)c1ccc(C(C)(C)c2cc(Cl)cc(NC(=O)c3cc4cc(NS(C)(=O)=O)c(Cl)cc4s3)c2)s1` [Example 180, 6-chloro-N-(3-chloro-5-(2-(5-isopropylthiophen-2-yl)propan-2-yl)phenyl)-5-(methylsulfonamido)benzo[b]thiophene-2-carboxamide], in that order: 0.01 µM, less than 0.005 µM and less than 0.005 µM.
For `Cc1csc(C(C)(C)c2cc(Cl)cc(NC(=O)c3cc4cc(NS(C)(=O)=O)c(Cl)cc4s3)c2)c1` [Example 181, 6-chloro-N-(3-chloro-5-(2-(4-methylthiophen-2-yl)propan-2-yl)phenyl)-5-(methylsulfonamido)benzo[b]thiophene-2-carboxamide], in that order: 0.005 µM, 0.005 µM and 0.006 µM.
In the case of `CC(C)(c1ccc(F)cc1)c1cc(Cl)cc(NC(=O)c2cc3cc(NS(C)(=O)=O)c(Cl)cc3s2)c1` [Example 182, 6-chloro-N-(3-chloro-5-(2-(4-fluorophenyl)propan-2-yl)phenyl)-5-(methylsulfonamido)benzo[b]thiophene-2-carboxamide], the IC50 against STAT3 was 0.012 µM; in the test on DU-145, 0.005 µM; in the test with LNCaP it was 0.018 µM.
On the same counts, the results for `COc1ccc(C(C)(C)c2cc(Cl)cc(NC(=O)c3cc4cc(NS(C)(=O)=O)c(Cl)cc4s3)c2)cc1` [Example 183, 6-chloro-N-(3-chloro-5-(2-(4-methoxyphenyl)propan-2-yl)phenyl)-5-(methylsulfonamido)benzo[b]thiophene-2-carboxamide] are 0.01 µM, 0.005 µM and 0.013 µM.
On the same counts, the results for `CC(C)(c1ccc(Cl)cc1)c1cc(Cl)cc(NC(=O)c2cc3cc(Cl)c(NS(C)(=O)=O)cc3s2)c1` [Example 184, 5-chloro-N-(3-chloro-5-(2-(4-chlorophenyl)propan-2-yl)phenyl)-6-(methylsulfonamido)benzo[b]thiophene-2-carboxamide] are 0.042 µM, 0.04 µM and 0.35 µM.
On to `COCCS(=O)(=O)Nc1cc2cc(C(=O)Nc3cc(Cl)cc(C(C)(C)c4ccc(Cl)cc4)c3)sc2cc1Cl` [Example 185, 6-chloro-N-(3-chloro-5-(2-(4-chlorophenyl)propan-2-yl)phenyl)-5-((2-methoxyethyl)sulfonamido)benzo[b]thiophene-2-carboxamide], for which the IC50 came to 0.007 µM at STAT3, 0.007 µM in the test with DU-145 and 0.072 µM in the test with LNCaP.
